Measurements from patent US8053577B2, “Derivatives of 5,9-methanocycloocta[b]pyridin-2-(1H)-one, their preparation and use as analgesics” (priority 2006, dated 2011).

Test system: mice
Test: Analgesic effect of intragastric administration on mice measured with hot-plate test
Assay type: in vivo, ICR mice
Settings: x ± s, n = 10; for pain threshold after administration / pain threshold before administration: Table 3 screening; for pain threshold after administration: 1 hour; for pain threshold before administration: group dosed 0.6 mg/kg intragastric
Procedure: The analgesic effect with a single dose of the compounds represented by Formula I is preliminarily screened at single time point through hot-plate test, with fortanodyn and aspirin as positive controls. All of the compounds are administered intragastrically.
On the basis of preliminary screening results, several representative compounds were selected to test their analgesic duration, and a part of the results is listed in Table 4. The results illustrate that the analgesic duration of most compounds is longer than 2 hours after a single oral administration, and that some of the compounds have analgesic duration lasting longer than 4 hours.
Furthermore, the dose-effect relationship on an analgesic model of two compounds was tested and the results are shown in Table 5.
Analgesic effect of intragastric administration on mice measured with hot-plate test
Female ICR mice, weight 20+2 g, were purchased from Department of Laboratory Animal Science, Beijing University, animal license number: SCXK 2002-0001.
A) Samples: samples were prepared as mixtures with 0.9% NaCl solution for intragastric administration to mice.
B) Fortanodyn: 30 mg/pill (TianJin LiSheng Pharmaceutical Co. Ltd, lot number: 0201001), 1.5 mg/mL solution was prepared with 0.9% NaCl solution for intragastric administration to mice.
1) Hot-plate test on mice was employed. A thermostatic water bath was adjusted at 55±0.5° C., the bottom of metal plates contacted water surface and used as stimuli after heating. The time span(s) from the point when the mouse was placed onto the hot-plate to the time when the mouse started to lick its metapedes was determined as its pain threshold, which was recorded by stopwatch. Female mice with a weight of 20±2 g were used. The pain threshold of every mouse was measured twice before administration, and the qualified mice are the ones whose average pain threshold was less than 30 seconds.
The qualified mice were randomly grouped with 10 mice in each group. The pain threshold before administration was determined as the basic pain threshold. To the medication administration team, drugs of different dose were given through intragastric administration, whereas to the control group, 0.9% NaCl solution was given. The administration volume was 0.2 mL for every 10 g body weight. The pain threshold of each group was measured at 1 hour after administration.
After administration the pain threshold of each group at different time was measured. The experimental data was statistically treated with t-test using SPSS10 statistics software.

`CC(=O)Oc1ccccc1C(=O)O` [Aspirin, reference compound] was tested, and the “pain threshold after administration” value (100 mg/kg intragastric) was 18.2 ± 3.71 s, the pain-threshold after administration (time course, 100 mg/kg intragastric, 30 min) was 18.1 ± 5.40 s and the pain-threshold after administration (time course, 100 mg/kg intragastric, 60 min) was 18.0 ± 3.80 s. For the same compound, the pain-threshold after administration (time course, 100 mg/kg intragastric, 120 min) was 14.0 ± 3.63 s and the pain-threshold after administration (time course, 100 mg/kg intragastric, 180 min) was 14.3 ± 3.62 s.
In the case of `C/C=C1\[C@H]2C=C(C)C[C@]1(/N=C/C=C/c1cccc(C)c1)c1ccc(=O)[nH]c1C2` [Example 4, (5R,9R,11E)-5-(3-(3-methylphenyl)prop-2-en-1-ylideneamino)-11-ethylidene-5,6,9,10-tetrahydro-7-methyl-5,9-methanocycloocta[b]pyridin-2(1H)-one], the “pain threshold after administration” value (0.6 mg/kg intragastric) was 27.0 ± 5.40 s and the “pain threshold before administration” value (baseline) was 12.2 ± 3.31 s.
For `C/C=C1\[C@H]2C=C(C)C[C@]1(/N=C/C=C/c1ccccc1C)c1ccc(=O)[nH]c1C2` [Example 5, (5R,9R,11E)-5-(3-(2-methylphenyl)prop-2-en-1-ylideneamino)-11-ethylidene-5,6,9,10-tetrahydro-7-methyl-5,9-methanocycloocta[b]pyridin-2(1H)-one], the “pain threshold after administration” value (0.6 mg/kg intragastric) was 27.6 ± 6.22 s and the “pain threshold before administration” value (baseline) was 12.8 ± 3.12 s.
`C/C=C1\[C@H]2C=C(C)C[C@]1(/N=C/C=C/c1ccc(C)cc1)c1ccc(=O)[nH]c1C2` [Example 6, (5R,9R,11E)-5-(3-(4-methylphenyl)prop-2-en-1-ylideneamino)-11-ethylidene-5,6,9,10-tetrahydro-7-methyl-5,9-methanocycloocta[b]pyridin-2(1H)-one] gave a pain-threshold after administration (time course, 0.76 mg/kg intragastric, 30 min) of 24.8 ± 8.77 s, a pain-threshold after administration (time course, 0.76 mg/kg intragastric, 60 min) of 31.9 ± 7.76 s and a pain-threshold after administration (time course, 0.76 mg/kg intragastric, 120 min) of 22.6 ± 8.37 s. The pain-threshold after administration (time course, 0.76 mg/kg intragastric, 180 min) was 25.9 ± 11.50 s, the pain-threshold after administration (time course, 0.76 mg/kg intragastric, 240 min) was 24.5 ± 10.55 s and the pain-threshold before administration (time course, group dosed 0.76 mg/kg intragastric, baseline) was 11.6 ± 4.14 s.
In the case of `C/C=C1\[C@H]2C=C(C)C[C@]1(/N=C/C=C(\C)c1ccccc1)c1ccc(=O)[nH]c1C2` [Example 7, (5R,9R,11E)-5-(3-methyl-3-phenylprop-2-en-1-ylideneamino)-11-ethylidene-5,6,9,10-tetrahydro-7-methyl-5,9-methanocycloocta[b]pyridin-2(1H)-one], the “pain threshold after administration” value (0.6 mg/kg intragastric) was 24.6 ± 5.61 s and the “pain threshold before administration” value (baseline) was 12.4 ± 2.33 s.
In the case of `C/C=C1\[C@H]2C=C(C)C[C@]1(/N=C/C=C/C=C/c1ccccc1)c1ccc(=O)[nH]c1C2` [Example 8, (5R,9R,11E)-5-(5-phenylpenta-2,4-dien-1-ylideneamino)-11-ethylidene-5,6,9,10-tetrahydro-7-methyl-5,9-methanocycloocta[b]pyridin-2(1H)-one], the “pain threshold after administration” value (0.6 mg/kg intragastric) was 23.0 ± 3.52 s.
With `C/C=C1\[C@H]2C=C(C)C[C@]1(/N=C/C=C/C=C/C=C/c1ccccc1)c1ccc(=O)[nH]c1C2` [Example 9, (5R,9R,11E)-5-(7-phenylhepta-2,4,6-trien-1-ylideneamino)-11-ethylidene-5,6,9,10-tetrahydro-7-methyl-5,9-methanocycloocta[b]pyridin-2(1H)-one] the “pain threshold after administration” value (0.6 mg/kg intragastric) was 25.8 ± 4.35 s and the “pain threshold before administration” value (baseline) was 12.4 ± 2.58 s.
For `C/C=C1\[C@H]2C=C(C)C[C@]1(N=CC(Br)=Cc1ccccc1)c1ccc(=O)[nH]c1C2` [Example 10, (5R,9R,11E)-5-(2-bromo-3-phenylprop-2-en-1-ylideneamino)-11-ethylidene-5,6,9,10-tetrahydro-7-methyl-5,9-methanocycloocta[b]pyridin-2(1H)-one], the “pain threshold after administration” value (0.6 mg/kg intragastric) was 21.0 ± 3.16 s and the “pain threshold before administration” value (baseline) was 11.8 ± 3.54 s.
In the case of `C/C=C1\[C@H]2C=C(C)C[C@]1(/N=C/C=C/c1cccc(Br)c1)c1ccc(=O)[nH]c1C2` [Example 11, (5R,9R,11E)-5-(3-(3-bromophenyl)prop-2-en-1-ylideneamino)-11-ethylidene-5,6,9,10-tetrahydro-7-methyl-5,9-methanocycloocta[b]pyridin-2(1H)-one], the “pain threshold after administration” value (0.6 mg/kg intragastric) was 23.0 ± 4.98 s and the “pain threshold before administration” value (baseline) was 12.8 ± 3.12 s.
With `C/C=C1\[C@H]2C=C(C)C[C@]1(/N=C/C=C/c1ccccc1Br)c1ccc(=O)[nH]c1C2` [Example 12, (5R,9R,11E)-5-(3-(2-bromophenyl)prop-2-en-1-ylideneamino)-11-ethylidene-5,6,9,10-tetrahydro-7-methyl-5,9-methanocycloocta[b]pyridin-2(1H)-one] the “pain threshold after administration” value (0.6 mg/kg intragastric) was 19.6 ± 4.03 s and the “pain threshold before administration” value (baseline) was 12.4 ± 2.58 s.
For `C/C=C1\[C@H]2C=C(C)C[C@]1(/N=C/C=C/c1ccc(Br)cc1)c1ccc(=O)[nH]c1C2` [Example 13, (5R,9R,11E)-5-(3-(4-bromophenyl)prop-2-en-1-ylideneamino)-11-ethylidene-5,6,9,10-tetrahydro-7-methyl-5,9-methanocycloocta[b]pyridin-2(1H)-one], the “pain threshold after administration” value (0.6 mg/kg intragastric) was 22.0 ± 4.86 s.
`C/C=C1\[C@H]2C=C(C)C[C@]1(/N=C/C=C/c1cccc(Cl)c1)c1ccc(=O)[nH]c1C2` [Example 15, (5R,9R,11E)-5-(3-(3-chlorophenyl)prop-2-en-1-ylideneamino)-11-ethylidene-5,6,9,10-tetrahydro-7-methyl-5,9-methanocycloocta[b]pyridin-2(1H)-one] was tested, and the “pain threshold after administration” value (0.6 mg/kg intragastric) was 28.8 ± 3.92 s and the “pain threshold before administration” value (baseline) was 13.0 ± 3.63 s.
For `C/C=C1\[C@H]2C=C(C)C[C@]1(/N=C/C=C/c1ccccc1Cl)c1ccc(=O)[nH]c1C2` [Example 16, (5R,9R,11E)-5-(3-(2-chlorophenyl)prop-2-en-1-ylideneamino)-11-ethylidene-5,6,9,10-tetrahydro-7-methyl-5,9-methanocycloocta[b]pyridin-2(1H)-one], the “pain threshold after administration” value (0.6 mg/kg intragastric) was 27.4 ± 5.16 s and the “pain threshold before administration” value (baseline) was 13.2 ± 3.76 s.
`C/C=C1\[C@H]2C=C(C)C[C@]1(/N=C/C=C/c1ccc(OC)cc1)c1ccc(=O)[nH]c1C2` [Example 17, (5R,9R,11E)-5-(3-(4-methoxylphenyl)prop-2-en-1-ylideneamino)-11-ethylidene-5,6,9,10-tetrahydro-7-methyl-5,9-methanocycloocta[b]pyridin-2(1H)-one] was tested, and the “pain threshold after administration” value (0.6 mg/kg intragastric) was 24.6 ± 5.46 s and the “pain threshold before administration” value (baseline) was 12.2 ± 2.14 s.
With `C/C=C1\[C@H]2C=C(C)C[C@]1(/N=C/C=C/c1ccccc1OC)c1ccc(=O)[nH]c1C2` [Example 18, (5R,9R,11E)-5-(3-(2-methoxylphenyl)prop-2-en-1-ylideneamino)-11-ethylidene-5,6,9,10-tetrahydro-7-methyl-5,9-methanocycloocta[b]pyridin-2(1H)-one] the “pain threshold after administration” value (0.6 mg/kg intragastric) was 26.0 ± 5.01 s and the “pain threshold before administration” value (baseline) was 13.0 ± 3.03 s.
`C/C=C1\[C@H]2C=C(C)C[C@]1(/N=C/C=C/c1cccc(OC)c1)c1ccc(=O)[nH]c1C2` [Example 19, (5R,9R,11E)-5-(3-(3-methoxylphenyl)prop-2-en-1-ylideneamino)-11-ethylidene-5,6,9,10-tetrahydro-7-methyl-5,9-methanocycloocta[b]pyridin-2(1H)-one] was tested, and the “pain threshold after administration” value (0.6 mg/kg intragastric) was 18.6 ± 3.44 s and the “pain threshold before administration” value (baseline) was 12.0 ± 2.53 s.
With `C/C=C1\[C@H]2C=C(C)C[C@]1(N=CC=Cc1ccncc1)c1ccc(=O)[nH]c1C2` [Example 20, (5R,9R,11E)-5-(3-(pyridin-4-yl)prop-2-en-1-ylideneamino)-11-ethylidene-5,6,9,10-tetrahydro-7-methyl-5,9-methanocycloocta[b]pyridin-2(1H)-one] the “pain threshold after administration” value (0.6 mg/kg intragastric) was 25.0 ± 5.18 s and the “pain threshold before administration” value (baseline) was 12.6 ± 2.42 s.
